Laboratory results: ChEMBL document CHEMBL3525899, “Identification of the cytochrome P450 and other enzymes involved in the in vitro oxidative metabolism of a novel antidepressant, Lu AA21004” (Drug Metab Dispos, 2012)

Tests used:
Cytochrome P450 2C8 = molecular target: T1, Cytochrome P450 2C8 (Homo sapiens, UniProt P10632); assay: Activity of human recombinant CYP2C8 expressed in microsomes isolated from human AHH-1 cells assessed as enzyme-mediated 1-(2-(2,4-dimethylphenylsulfinyl)phenyl)piperazine formation at 8 to 50 uM after 120 mins by HPLC/MS-MS analysis in presence of NADPH regenerating system with NADP+; assay type: ADME, cell-free; conditions: 2 h
T1 sequence (P10632 whole entry): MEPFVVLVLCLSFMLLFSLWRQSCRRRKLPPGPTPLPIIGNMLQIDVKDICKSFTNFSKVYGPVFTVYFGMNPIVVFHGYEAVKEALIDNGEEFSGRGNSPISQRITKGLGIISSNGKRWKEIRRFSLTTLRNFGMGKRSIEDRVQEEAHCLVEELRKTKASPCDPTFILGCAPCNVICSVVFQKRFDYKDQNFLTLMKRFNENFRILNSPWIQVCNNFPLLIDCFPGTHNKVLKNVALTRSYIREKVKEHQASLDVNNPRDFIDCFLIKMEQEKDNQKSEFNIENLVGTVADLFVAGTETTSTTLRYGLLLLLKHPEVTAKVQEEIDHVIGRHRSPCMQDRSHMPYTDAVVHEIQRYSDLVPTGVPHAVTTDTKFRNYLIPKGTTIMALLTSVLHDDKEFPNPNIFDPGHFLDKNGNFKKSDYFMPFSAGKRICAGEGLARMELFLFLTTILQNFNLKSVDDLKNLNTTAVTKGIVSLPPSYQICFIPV

Cytochrome P450 2C9 = Cytochrome P450 2C9 (Homo sapiens, UniProt P11712); assay: Activity of human recombinant CYP2C9 expressed in microsomes isolated from human AHH-1 cells assessed as enzyme-mediated 4-(2-(2,4-dimethylphenylthio)phenyl)piperazin-1-ol formation at 8 to 50 uM after 120 mins by HPLC/MS-MS analysis in presence of NADPH regenerating system with NADP+; assay type: ADME, cell-free; conditions: 2 h
Cytochrome P450 2B6 = molecular target: T2, Cytochrome P450 2B6 (Homo sapiens, UniProt P20813); assay: Activity of human recombinant CYP2B6 expressed in microsomes isolated from human AHH-1 cells assessed as enzyme-mediated 4-(2-(2,4-dimethylphenylthio)phenyl)piperazin-1-ol formation at 8 to 50 uM after 120 mins by HPLC/MS-MS analysis in presence of NADPH regenerating system with NADP+; assay type: ADME, cell-free; conditions: 2 h
T2 sequence (P20813 whole entry): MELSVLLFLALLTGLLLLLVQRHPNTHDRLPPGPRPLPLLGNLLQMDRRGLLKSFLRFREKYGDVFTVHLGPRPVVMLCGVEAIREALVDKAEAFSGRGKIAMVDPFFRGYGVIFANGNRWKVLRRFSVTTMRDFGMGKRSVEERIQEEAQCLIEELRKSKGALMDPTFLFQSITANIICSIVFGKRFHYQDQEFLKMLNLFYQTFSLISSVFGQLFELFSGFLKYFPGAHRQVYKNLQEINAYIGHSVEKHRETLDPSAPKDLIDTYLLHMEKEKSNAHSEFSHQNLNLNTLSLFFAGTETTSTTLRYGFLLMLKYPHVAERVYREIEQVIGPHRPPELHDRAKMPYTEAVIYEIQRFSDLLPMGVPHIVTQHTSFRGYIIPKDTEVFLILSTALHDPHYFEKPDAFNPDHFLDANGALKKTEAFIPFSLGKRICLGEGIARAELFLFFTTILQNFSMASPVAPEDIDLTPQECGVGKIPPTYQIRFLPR

Liver microsome [1] = assay: Drug metabolism in pooled human liver microsomes assessed as formation of (3-methyl-4-(2-(piperazin-1-yl)phenylthio)phenyl)methanol after 30 mins by Michaelis-Menten plot analysis in presence of NADPH regenerating system with NADP+; assay type: ADME; conditions: 0.5 h, read-out: Km(app)
Liver microsome [2] = assay: Drug metabolism in pooled human liver microsomes assessed as formation of (3-methyl-4-(2-(piperazin-1-yl)phenylthio)phenyl)methanol per mg of protein after 30 mins by Michaelis-Menten plot analysis in presence of NADPH regenerating system with NADP+; assay type: ADME; conditions: 0.5 h
Liver microsome [3] = assay: Intrinsic clearance in pooled human liver microsomes assessed as Vmax(app)/Km(app) for formation of (3-methyl-4-(2-(piperazin-1-yl)phenylthio)phenyl)methanol per mg of protein after 30 mins by Michaelis-Menten plot analysis in presence of NADPH regenerating system with NADP+; assay type: ADME; conditions: 0.5 h
Liver microsome [4] = assay: Drug metabolism in pooled human liver microsomes assessed as formation of 1-(2-(2,4-dimethylphenylsulfinyl)phenyl)piperazine per mg of protein after 30 mins by Michaelis-Menten plot analysis in presence of NADPH regenerating system with NADP+; assay type: ADME; conditions: 0.5 h
Cytochrome P450 2C19 = Cytochrome P450 2C19 (Homo sapiens, UniProt P33261); assay: Activity of human recombinant CYP2C19 expressed in microsomes isolated from human AHH-1 cells assessed as enzyme-mediated 3-(2,4-dimethylphenylthio)-4-(piperazin-1-yl)phenol formation at 8 to 50 uM after 120 mins by HPLC/MS-MS analysis in presence of NADPH regenerating system with NADP+; assay type: ADME, cell-free; conditions: 2 h
Liver microsome [5] = assay: Drug metabolism in phenotyped human liver microsomes assessed as formation of 1-(2-(2,4-dimethylphenylsulfinyl)phenyl)piperazine at 8 to 50 uM after 60 mins by HPLC/MS-MS analysis in presence of NADPH regenerating system with NADP+; assay type: ADME; conditions: 1 h
Liver microsome [6] = assay: Drug metabolism in phenotyped human liver microsomes assessed as formation of 4-(2-(2,4-dimethylphenylthio)phenyl)piperazin-1-ol at 8 to 50 uM after 60 mins by HPLC/MS-MS analysis in presence of NADPH regenerating system with NADP+; assay type: ADME; conditions: 1 h
Liver microsome [7] = assay: Drug metabolism in pooled human liver microsomes assessed as formation of (3-methyl-4-(2-(piperazin-1-yl)phenylthio)phenyl)methanol at 100 uM after 30 to 180 mins by HPLC/MS-MS analysis in presence of NADPH regenerating system with NADP+; assay type: ADME
Liver microsome [8] = assay: Drug metabolism in pooled human liver microsomes assessed as formation of 1-(2-(2,4-dimethylphenylsulfinyl)phenyl)piperazine at 100 uM after 30 to 180 mins by HPLC/MS-MS analysis in presence of NADPH regenerating system with NADP+; assay type: ADME

Chain of Cytochrome P450 2C19 (P33261 whole entry): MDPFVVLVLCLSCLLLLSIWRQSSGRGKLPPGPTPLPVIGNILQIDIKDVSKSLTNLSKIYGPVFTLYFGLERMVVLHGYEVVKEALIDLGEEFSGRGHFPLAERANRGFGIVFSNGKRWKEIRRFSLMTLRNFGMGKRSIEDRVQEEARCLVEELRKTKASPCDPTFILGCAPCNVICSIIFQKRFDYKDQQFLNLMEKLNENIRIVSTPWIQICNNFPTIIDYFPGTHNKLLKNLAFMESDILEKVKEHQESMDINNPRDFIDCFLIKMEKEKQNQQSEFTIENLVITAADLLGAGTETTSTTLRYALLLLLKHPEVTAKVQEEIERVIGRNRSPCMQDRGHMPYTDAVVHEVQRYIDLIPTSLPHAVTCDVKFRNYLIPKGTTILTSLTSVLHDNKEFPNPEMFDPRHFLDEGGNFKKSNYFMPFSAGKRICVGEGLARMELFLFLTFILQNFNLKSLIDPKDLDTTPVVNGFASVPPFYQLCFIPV
Chain of Cytochrome P450 2C9 (P11712 whole entry): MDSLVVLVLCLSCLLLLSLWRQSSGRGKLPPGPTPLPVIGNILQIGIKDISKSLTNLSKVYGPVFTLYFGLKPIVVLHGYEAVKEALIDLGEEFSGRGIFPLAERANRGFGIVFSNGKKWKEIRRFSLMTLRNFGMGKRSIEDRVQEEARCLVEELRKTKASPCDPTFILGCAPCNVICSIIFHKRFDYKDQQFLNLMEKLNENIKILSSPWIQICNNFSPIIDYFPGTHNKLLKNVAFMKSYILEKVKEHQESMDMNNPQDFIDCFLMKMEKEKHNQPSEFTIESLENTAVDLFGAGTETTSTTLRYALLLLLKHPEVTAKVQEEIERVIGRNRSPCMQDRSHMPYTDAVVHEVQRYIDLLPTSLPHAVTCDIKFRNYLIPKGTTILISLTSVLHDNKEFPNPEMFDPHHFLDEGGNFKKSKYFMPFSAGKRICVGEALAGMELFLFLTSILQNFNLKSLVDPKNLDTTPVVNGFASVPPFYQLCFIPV

Structure (SMILES): Br.Cc1ccc(Sc2ccccc2N2CCNCC2)c(C)c1 [VORTIOXETINE HYDROBROMIDE]
- Drug metabolism (Cytochrome P450 2C8): metabolite_detected
- Drug metabolism (Cytochrome P450 2C9): metabolite_detected
- Drug metabolism (Cytochrome P450 2B6): metabolite_detected
- Km (Liver microsome [1]): 231 µM
- Vmax(app) (Liver microsome [2]): 262 pmol/min
- Vmax/Km (Liver microsome [3]): 1.13 µL/min
- Vmax(app) (Liver microsome [4]): >= 227 pmol/min
- Drug metabolism (Cytochrome P450 2C19): metabolite_detected
- Drug metabolism (Liver microsome [5]): metabolite_detected
- Drug metabolism (Liver microsome [6]): metabolite_detected
- Drug metabolism (Liver microsome [7]): metabolite_detected
- Drug metabolism (Liver microsome [8]): metabolite_detected
